The structures appear in SMILES notation. “And” between values parts separate entries of the source, which are not always exact repeats. Equal entries are not always repeated. Inconclusive results and toxic doses are left out.

This test has as its system CD2F1 mice, L1210 leukemia ip, survival T/C. Nature of the test: NCI In Vivo Anticancer Drug Screen. Data for tumor model L1210 Leukemia (intraperitoneal) in CD2F1 (CDF1) mice. To be noted: higher = longer survival. A digest of the protocol: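 Vehicle-treated tumor-bearing mice served as controls (C) for compound-treated mice (T). Reported figure is T divided by C.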
Where [1] appears, read: endpoint: mean survival time, dose: 100.0 mg/kg/injection, schedule: Q04DX002 (ip), vehicle: saline with Tween-80.
Setting [2] is: endpoint: mean survival time, dose: 200.0 mg/kg/injection, schedule: Q04DX002 (ip), vehicle: saline with Tween-80.
[3] abbreviates: endpoint: mean survival time, dose: 400.0 mg/kg/injection, schedule: Q04DX002 (ip), vehicle: saline with Tween-80.
Where [4] appears, read: endpoint: mean survival time, dose: 100.0 mg/kg/injection, schedule: Q01DX001 (ip), vehicle: saline.
[5] abbreviates: endpoint: mean survival time, dose: 200.0 mg/kg/injection, schedule: Q01DX001 (ip), vehicle: saline.
[6] abbreviates: endpoint: mean survival time, dose: 100.0 mg/kg/injection, schedule: Q04DX003 (ip), vehicle: saline with Tween-80.
Where [7] appears, read: endpoint: mean survival time, dose: 100.0 mg/kg/injection, schedule: Q01DX009 (ip), vehicle: saline with Tween-80.
Setting [8] is: endpoint: mean survival time, dose: 200.0 mg/kg/injection, schedule: Q01DX009 (ip), vehicle: saline with Tween-80.
The mark [9] stands for this setting: endpoint: mean survival time, dose: 400.0 mg/kg/injection, schedule: Q01DX009 (ip), vehicle: saline with Tween-80.
The mark [10] stands for this setting: endpoint: mean survival time, dose: 50.0 mg/kg/injection, schedule: Q01DX009 (ip), vehicle: saline with Tween-80.

Regarding `O=C(Nc1ccc([N+](=O)[O-])cc1)OCc1ccccc1`, the T/C was 104 % of control (endpoint: mean survival time, dose: 50.0 mg/kg/injection, schedule: Q04DX002 (ip), vehicle: saline with Tween-80); 100 % of control under setting [1]; 108 % of control under setting [2].
For the molecule `NC(=S)S`, the T/C under setting [1] was 102 % of control, the T/C under setting [2] was 113 % of control and the T/C under setting [3] is 102 % of control.
In the case of `[CH3][Pb]([CH3])([CH3])[NH]C#N`, the T/C is 98 % of control (endpoint: mean survival time, dose: 2.5 mg/kg/injection, schedule: Q01DX009 (ip), vehicle: saline) and 87 % of control (endpoint: mean survival time, dose: 5.0 mg/kg/injection, schedule: Q01DX009 (ip), vehicle: saline).
On to `O=c1ccn(C2OC(CCl)C(O)C2O)c(=O)[nH]1` (stereo not given), for which the T/C (endpoint: mean survival time, dose: 50.0 mg/kg/injection, schedule: Q01DX001 (ip), vehicle: saline) was 105 % of control; the T/C under setting [4] is 102 % of control; the T/C under setting [5] is 94 % of control.
In the case of `O=C(CBr)c1cccc(OC(=O)c2ccccc2)c1`, the T/C is, setting by setting: (endpoint: mean survival time, dose: 12.5 mg/kg/injection, schedule: Q01DX009 (ip), vehicle: saline with Tween-80) 100 % of control; (endpoint: mean survival time, dose: 12.5 mg/kg/injection, schedule: Q04DX003 (ip), vehicle: saline with Tween-80) 107 % of control; (endpoint: mean survival time, dose: 25.0 mg/kg/injection, schedule: Q01DX009 (ip), vehicle: saline with Tween-80) 100 % of control; (endpoint: mean survival time, dose: 25.0 mg/kg/injection, schedule: Q04DX003 (ip), vehicle: saline with Tween-80) 102 % of control; (endpoint: mean survival time, dose: 50.0 mg/kg/injection, schedule: Q04DX003 (ip), vehicle: saline with Tween-80) 113 % of control.
In the case of `COc1ccc2c(c1)CCn1c(C)c(COC(=O)NC(C)C)c(COC(=O)NC(C)C)c1-2`, the T/C by setting is: (endpoint: median survival time, dose: 3.12 mg/kg/injection, schedule: Q01DX009 (ip), vehicle: distilled water + Tween-80) 120 % of control; (endpoint: median survival time, dose: 3.13 mg/kg/injection, schedule: Q01DX009 (ip), vehicle: distilled water + Tween-80) 123 % of control; (endpoint: median survival time, dose: 6.25 mg/kg/injection, schedule: Q01DX009 (ip), vehicle: distilled water + Tween-80) 114 % of control; (endpoint: median survival time, dose: 25.0 mg/kg/injection, schedule: Q01DX009 (ip), vehicle: distilled water + Tween-80) 152 % of control and 157 % of control; (endpoint: median survival time, dose: 50.0 mg/kg/injection, schedule: Q01DX009 (ip), vehicle: distilled water + Tween-80) 114 % of control.
`C[Si](C)(C)O/C=C1/CCOC1=O`: the T/C was 97 % of control and 107 % of control (endpoint: mean survival time, dose: 12.5 mg/kg/injection, schedule: Q01DX009 (ip), vehicle: saline); 106 % of control and 108 % of control (endpoint: mean survival time, dose: 25.0 mg/kg/injection, schedule: Q01DX009 (ip), vehicle: saline); 103 % of control and 104 % of control (endpoint: mean survival time, dose: 50.0 mg/kg/injection, schedule: Q01DX009 (ip), vehicle: saline); 104 % of control and 106 % of control (endpoint: mean survival time, dose: 100.0 mg/kg/injection, schedule: Q01DX009 (ip), vehicle: saline); 105 % of control and 112 % of control (endpoint: mean survival time, dose: 200.0 mg/kg/injection, schedule: Q01DX009 (ip), vehicle: saline); 113 % of control and 112 % of control (endpoint: mean survival time, dose: 400.0 mg/kg/injection, schedule: Q01DX009 (ip), vehicle: saline).
`COc1ccccc1N=O`: the T/C is, setting by setting: (endpoint: mean survival time, dose: 12.5 mg/kg/injection, schedule: Q01DX001 (ip), vehicle: Klucel (hydroxypropylcellulose) (HPC)) 93 % of control; (endpoint: mean survival time, dose: 25.0 mg/kg/injection, schedule: Q01DX001 (ip), vehicle: Klucel (hydroxypropylcellulose) (HPC)) 96 % of control; (endpoint: mean survival time, dose: 50.0 mg/kg/injection, schedule: Q01DX001 (ip), vehicle: Klucel (hydroxypropylcellulose) (HPC)) 93 % of control.
On to `O=C(c1ccccc1)N(N=C(c1ccc([N+](=O)[O-])cc1)c1ccc([N+](=O)[O-])cc1)c1ccccc1`, for which the T/C reads like this: under setting [6], 93 % of control; (endpoint: mean survival time, dose: 400.0 mg/kg/injection, schedule: Q04DX003 (ip), vehicle: saline with Tween-80) 87 % of control.
For `O=C(O)CCC(Cc1ccccc1)C(=O)O` (stereo not given), the T/C is 97 % of control under setting [7], 94 % of control under setting [8] and 86 % of control under setting [9].
Take `CCOc1ccc(-n2c(O)c(N=Nc3ccccc3OC)c(=O)n(-c3ccc(OC)cc3)c2=S)cc1`: the T/C (endpoint: mean survival time, dose: 100.0 mg/kg/injection, schedule: Q01DX001 (ip), vehicle: saline with Tween-80) is 101 % of control; the T/C (endpoint: mean survival time, dose: 200.0 mg/kg/injection, schedule: Q01DX001 (ip), vehicle: saline with Tween-80) was 95 % of control; the T/C (endpoint: mean survival time, dose: 400.0 mg/kg/injection, schedule: Q01DX001 (ip), vehicle: saline with Tween-80) is 94 % of control.
Take `Cc1cn(C2CCC3(C)C(=CCC4C3CCC3(C)C(C(C)CCCC(C)C)CCC43)C2)c(=O)[nH]c1=O` (stereo not given): the T/C is 88 % of control (endpoint: mean survival time, dose: 37.5 mg/kg/injection, schedule: Q01DX001 (ip), vehicle: Klucel (hydroxypropylcellulose) (HPC)); 91 % of control (endpoint: mean survival time, dose: 75.0 mg/kg/injection, schedule: Q01DX001 (ip), vehicle: Klucel (hydroxypropylcellulose) (HPC)); 91 % of control (endpoint: mean survival time, dose: 150.0 mg/kg/injection, schedule: Q01DX001 (ip), vehicle: Klucel (hydroxypropylcellulose) (HPC)); 91 % of control (endpoint: mean survival time, dose: 300.0 mg/kg/injection, schedule: Q01DX001 (ip), vehicle: Klucel (hydroxypropylcellulose) (HPC)).
With `O=C=NC(=O)c1ccccc1`, the T/C reads like this: under setting [1], 96 % of control; under setting [2], 100 % of control; under setting [3], 118 % of control.
As to `CC(=O)OCC1OC(n2c(Cl)nc3c(Cl)nc(N)nc32)C(OC(C)=O)C1OC(C)=O` (stereo not given), the T/C was 100 % of control under setting [4]; 100 % of control under setting [5]; 97 % of control (endpoint: mean survival time, dose: 400.0 mg/kg/injection, schedule: Q01DX001 (ip), vehicle: saline).
`CCc1c(C)[nH]c2ccc([N+](=O)[O-])cc12`: the T/C reads like this: under setting [10], 103 % of control; under setting [7], 94 % of control; under setting [6], 100 % of control; under setting [8], 97 % of control; (endpoint: mean survival time, dose: 200.0 mg/kg/injection, schedule: Q04DX003 (ip), vehicle: saline with Tween-80) 93 % of control.
As to `c1ccc(NSc2ccccc2)cc1`, the T/C under setting [10] is 101 % of control, the T/C under setting [7] is 101 % of control and the T/C under setting [8] was 96 % of control.
As to `CC(=O)Nc1cccc([N+](=O)[O-])c1`, the T/C is 94 % of control (endpoint: mean survival time, dose: 100.0 mg/kg/injection, schedule: Q04DX003 (ip), vehicle: Klucel (hydroxypropylcellulose) (HPC)) and 97 % of control (endpoint: mean survival time, dose: 200.0 mg/kg/injection, schedule: Q04DX003 (ip), vehicle: Klucel (hydroxypropylcellulose) (HPC)).
With `CC(=O)c1ccc(N=NC2C(=O)N(c3ccccc3)N=C2C)cc1` (stereo not given), the T/C by setting is: under setting [8], 87 % of control; under setting [9], 95 % of control.

Values taken from PubChem BioAssay AID256 (DTP/NCI, 2004).
